Earlier results on one compound are cited in patent publication US20160185712A1, “PHOTO-ACTIVATED HYDROGELS” (L'OREAL, priority 2014, published 2016).

In the case of `O=C1c2ccccc2C(=O)c2cc(S(=O)(=O)[O-])ccc21.[Na+]` [anthraquinone-2-sulfonic acid sodium salt], the water solubility result is “water soluble”.
